The experiment deals with βAR (β-adrenergic receptor), cardiac sarcolemmal membranes of wild-type FVB/N mice. To be noted: read-out: Kd for ICYP.

`CC(C)(C)NCC(O)COc1cccc2[nH]c(C#N)c([125I])c12` (stereo not shown) [ICYP, ^125 I-iodocyanopindolol]: the Kd (usually the concentration at which binding is half-saturated) was approximately 0.02 nM.

These data come from patent US6218597A, “Transgenic model and treatment for heart disease” (University Technology Corporation, priority 1998, dated 2001).
